Key:
[1] = test system: A549 cells; experiment: MTT assay, antiproliferative activity, A549; format: cell-based, human; conditions: for IC50: Homo sapiens, A549, MTT, 24 h treatment, mean ± SD; for Selectivity Index (SI) A549: IC50 of healthy cells (NIH/3T3)/IC50 of cancer cells
Experimental: (§1) MCF-7 (human ER + breast cancer, HTB-22, USA), A549 (human nonsmall cell lung cancer, ATTC CRM-CCL-185, USA), HepG2 (human liver cancer, ATTC HB-8065, USA), and NIH/3T3 (mouse embryonic fibroblast, ATCC, CRL-1658, USA) cells were maintained in DMEM supplemented with 10% fetal bovine serum and 1% penicillin/streptomycin. The cells were maintained under appropriate conditions (37 °C, 5% CO2).
(§2) The antiproliferative activity of the newly synthesized compounds was measured using the MTT assay as described in a previous study. Briefly, cells were seeded at a density of 6 × 10^3 cells/well and incubated for 24 h in a 37 °C humidified incubator with 5% CO2. Afterwards, the cells were treated with increasing concentrations (1, 2.5, 5, 10, 25, 50, 75, and 100 μM) of compounds and incubated for another 24 h. Moreover, some cells were incubated with doxorubicin (1, 5, 10, 25, and 50 μM) for comparison, while other cells treated only with 1% DMSO was used as the solvent control. After incubation, 20 μL of MTT solution (5 mg/mL in PBS) was added to each well, and the plate was incubated for 4 h under the same conditions. Following this period, the medium was discarded and replaced with DMSO. The absorbance of dissolved formazan crystals was measured using a multiplate reader. The IC50 value and the selectivity index of each compound were calculated as previously described.
(§3) The antiproliferative effect of all newly synthesized thiazole-integrated pyrrolotriazinone derivatives were assessed against cancer cell lines (MCF-7, A549, and HepG2) as well as a healthy cell line (NIH/3T3) using the MTT assay. The IC50 values were determined through the nonlinear regression algorithm for log (inhibitor) versus normalized response-variable slope, as implemented in GraphPad [Y = 100/(1 + 10^X−LogIC50), where X represents the logarithm of the inhibitor concentration and Y denotes the response]. Additionally, Selectivity Indices (SI: IC50 of healthy cells/IC50 of cancer cells) were calculated.

[2] = test system: MCF-7 cells; experiment: MTT assay, antiproliferative activity, MCF-7; format: cell-based, human; conditions: for IC50: Homo sapiens, MCF7, MTT, 24 h treatment, mean ± SD; for Selectivity Index (SI) MCF-7: IC50 of healthy cells (NIH/3T3)/IC50 of cancer cells
Experimental: as §1, §2, §3

[3] = test system: HepG2 cells; experiment: MTT assay, antiproliferative activity, HepG2; format: cell-based, human; conditions: for IC50: Homo sapiens, HepG2, MTT, 24 h treatment, mean ± SD; for Selectivity Index (SI) HepG2: IC50 of healthy cells (NIH/3T3)/IC50 of cancer cells
Experimental: as §1, §2, §3

[4] = test system: NIH/3T3 cells; experiment: MTT assay, healthy cell line NIH/3T3; format: cell-based; conditions: Mus musculus, NIH3T3, 24 h treatment, mean ± SD
Experimental: as §1, §2, §3

Structure (SMILES): Cc1csc(-n2ncc3cccn3c2=O)n1 [Compound 13, 3-(4-methylthiazol-2-yl)pyrrolo[1,2-d][1,2,4]triazin-4(3H)-one]
- IC50 [1]: > 100 µM
- Selectivity Index (SI) A549 [1]: 0.94
- IC50 [2]: > 100 µM
- Selectivity Index (SI) MCF-7 [2]: 1.01
- IC50 [3]: > 100 µM
- Selectivity Index (SI) HepG2 [3]: 1.32
- IC50 [4]: > 100 µM

Structure (SMILES): O=c1n(-c2nc(-c3ccccc3)cs2)ncc2cccn12 [Compound 14, 3-(4-phenylthiazol-2-yl)pyrrolo[1,2-d][1,2,4]triazin-4(3H)-one]
- IC50 [1]: > 100 µM
- Selectivity Index (SI) A549 [1]: 1.25
- IC50 [2]: > 100 µM
- Selectivity Index (SI) MCF-7 [2]: 0.96
- IC50 [3]: > 100 µM
- Selectivity Index (SI) HepG2 [3]: 1.04
- IC50 [4]: > 100 µM

Structure (SMILES): Cc1ccc(-c2csc(-n3ncc4cccn4c3=O)n2)cc1 [Compound 15, 3-(4-(p-tolyl)thiazol-2-yl)pyrrolo[1,2-d][1,2,4]triazin-4(3H)-one]
- IC50 [1]: > 100 µM
- Selectivity Index (SI) A549 [1]: 0.84
- IC50 [2]: > 100 µM
- Selectivity Index (SI) MCF-7 [2]: 1.01
- IC50 [3]: > 100 µM
- Selectivity Index (SI) HepG2 [3]: 0.85
- IC50 [4]: > 100 µM

Structure (SMILES): O=c1n(-c2nc(-c3ccc(O)cc3)cs2)ncc2cccn12 [Compound 16, 3-(4-(4-hydroxyphenyl)thiazol-2-yl)pyrrolo[1,2-d][1,2,4]triazin-4(3H)-one]
- IC50 [1]: > 100 µM
- Selectivity Index (SI) A549 [1]: 1.32
- IC50 [2]: > 100 µM
- Selectivity Index (SI) MCF-7 [2]: 1.10
- IC50 [3]: > 100 µM
- Selectivity Index (SI) HepG2 [3]: 1.02
- IC50 [4]: > 100 µM

Structure (SMILES): COc1ccc(-c2csc(-n3ncc4cccn4c3=O)n2)cc1 [Compound 17, 3-(4-(4-methoxyphenyl)thiazol-2-yl)pyrrolo[1,2-d][1,2,4]triazin-4(3H)-one]
- IC50 [1]: > 100 µM
- Selectivity Index (SI) A549 [1]: 1.44
- IC50 [2]: > 100 µM
- Selectivity Index (SI) MCF-7 [2]: 1.34
- IC50 [3]: > 100 µM
- Selectivity Index (SI) HepG2 [3]: 1.22
- IC50 [4]: > 100 µM

Structure (SMILES): O=c1n(-c2nc(-c3ccc([N+](=O)[O-])cc3)cs2)ncc2cccn12 [Compound 18, 3-(4-(4-nitrophenyl)thiazol-2-yl)pyrrolo[1,2-d][1,2,4]triazin-4(3H)-one]
- IC50 [1]: > 100 µM
- Selectivity Index (SI) A549 [1]: 1.51
- IC50 [2]: 79.19 ± 0.61 µM
- Selectivity Index (SI) MCF-7 [2]: 2.08
- IC50 [3]: > 100 µM
- Selectivity Index (SI) HepG2 [3]: 1.60
- IC50 [4]: > 100 µM

Structure (SMILES): O=c1n(-c2nc(-c3ccc(C(F)(F)F)cc3)cs2)ncc2cccn12 [Compound 19, 3-(4-(4-(trifluoromethyl)phenyl)thiazol-2-yl)pyrrolo[1,2-d][1,2,4]triazin-4(3H)-one]
- IC50 [1]: 79.5 ± 1.13 µM
- Selectivity Index (SI) A549 [1]: 1.87
- IC50 [2]: 61.8 ± 1.42 µM
- Selectivity Index (SI) MCF-7 [2]: 2.41
- IC50 [3]: 52.8 ± 0.79 µM
- Selectivity Index (SI) HepG2 [3]: 2.82
- IC50 [4]: > 100 µM

Structure (SMILES): O=c1n(-c2nc(-c3ccc(F)cc3)cs2)ncc2cccn12 [Compound 20, 3-(4-(4-fluorophenyl)thiazol-2-yl)pyrrolo[1,2-d][1,2,4]triazin-4(3H)-one]
- IC50 [1]: 44.5 ± 0.51 µM
- Selectivity Index (SI) A549 [1]: 4.41
- IC50 [2]: 39.8 ± 0.54 µM
- Selectivity Index (SI) MCF-7 [2]: 4.93
- IC50 [3]: 69.7 ± 1.26 µM
- Selectivity Index (SI) HepG2 [3]: 2.81
- IC50 [4]: > 100 µM

Structure (SMILES): O=c1n(-c2nc(-c3ccc(Br)cc3)cs2)ncc2cccn12 [Compound 22, 3-(4-(4-bromophenyl)thiazol-2-yl)pyrrolo[1,2-d][1,2,4]triazin-4(3H)-one]
- IC50 [1]: 71.2 ± 0.74 µM
- Selectivity Index (SI) A549 [1]: 1.31
- IC50 [2]: 55.6 ± 1.05 µM
- Selectivity Index (SI) MCF-7 [2]: 1.68
- IC50 [3]: 51.85 ± 0.23 µM
- Selectivity Index (SI) HepG2 [3]: 1.80
- IC50 [4]: 93.46 ± 0.74 µM

Structure (SMILES): COc1ccc(-c2csc(-n3ncc4cccn4c3=O)n2)cc1OC [Compound 23, 3-(4-(3,4-dimethoxyphenyl)thiazol-2-yl)pyrrolo[1,2-d][1,2,4]triazin-4(3H)-one]
- IC50 [1]: 43.3 ± 1.09 µM
- IC50 [2]: 15.2 ± 0.183 µM
- Selectivity Index (SI) MCF-7 [2]: 5.49
- IC50 [3]: 17.2 ± 0.81 µM
- Selectivity Index (SI) HepG2 [3]: 4.85
- IC50 [4]: 83.44 ± 0.15 µM

Structure (SMILES): O=c1n(-c2nc(-c3ccc(F)c(F)c3)cs2)ncc2cccn12 [Compound 24, 3-(4-(3,4-difluorophenyl)thiazol-2-yl)pyrrolo[1,2-d][1,2,4]triazin-4(3H)-one]
- IC50 [1]: 45.23 ± 0.41 µM
- Selectivity Index (SI) A549 [1]: 3.46
- IC50 [2]: 33.2 ± 0.49 µM
- Selectivity Index (SI) MCF-7 [2]: 4.72
- IC50 [3]: 25.3 ± 1.06 µM
- Selectivity Index (SI) HepG2 [3]: 6.19
- IC50 [4]: > 100 µM

Structure (SMILES): O=c1n(-c2nc(-c3ccc(-c4ccccc4)cc3)cs2)ncc2cccn12 [Compound 28, 3-(4-([1,1′-biphenyl]-4-yl)thiazol-2-yl)pyrrolo[1,2-d][1,2,4]triazin-4(3H)-one]
- IC50 [1]: 78.23 ± 0.05 µM
- Selectivity Index (SI) A549 [1]: 2.25
- IC50 [2]: 63.17 ± 0.35 µM
- Selectivity Index (SI) MCF-7 [2]: 2.79
- IC50 [3]: 44.8 ± 1.06 µM
- Selectivity Index (SI) HepG2 [3]: 3.93
- IC50 [4]: > 100 µM

Structure (SMILES): O=c1n(-c2nc(-c3ccc4ccccc4c3)cs2)ncc2cccn12 [Compound 29, 3-(4-(naphthalen-2-yl)thiazol-2-yl)pyrrolo[1,2-d][1,2,4]triazin-4(3H)-one]
- IC50 [1]: > 100 µM
- Selectivity Index (SI) A549 [1]: 1.19
- IC50 [2]: > 100 µM
- Selectivity Index (SI) MCF-7 [2]: 1.03
- IC50 [3]: > 100 µM
- Selectivity Index (SI) HepG2 [3]: 1.26
- IC50 [4]: > 100 µM

Structure (SMILES): O=c1n(-c2nc(-c3cc4ccccc4o3)cs2)ncc2cccn12 [Compound 30, 3-(4-(benzofuran-2-yl)thiazol-2-yl)pyrrolo[1,2-d][1,2,4]triazin-4(3H)-one]
- IC50 [1]: > 100 µM
- Selectivity Index (SI) A549 [1]: 1.51
- IC50 [2]: > 100 µM
- Selectivity Index (SI) MCF-7 [2]: 1.57
- IC50 [3]: > 100 µM
- Selectivity Index (SI) HepG2 [3]: 1.90
- IC50 [4]: > 100 µM

Structure (SMILES): O=c1n(-c2nc(-c3ccco3)cs2)ncc2cccn12 [Compound 31, 3-(4-(furan-2-yl)thiazol-2-yl)pyrrolo[1,2-d][1,2,4]triazin-4(3H)-one]
- IC50 [1]: > 100 µM
- Selectivity Index (SI) A549 [1]: 1.67
- IC50 [2]: 91.2 ± 1.06 µM
- Selectivity Index (SI) MCF-7 [2]: 1.91
- IC50 [3]: > 100 µM
- Selectivity Index (SI) HepG2 [3]: 1.69
- IC50 [4]: > 100 µM

Structure (SMILES): O=c1n(-c2nc(-c3cccs3)cs2)ncc2cccn12 [Compound 32, 3-(4-(thiophen-2-yl)thiazol-2-yl)pyrrolo[1,2-d][1,2,4]triazin-4(3H)-one]
- IC50 [1]: > 100 µM
- Selectivity Index (SI) A549 [1]: 1.68
- IC50 [2]: 83.71 ± 0.81 µM
- Selectivity Index (SI) MCF-7 [2]: 2.43
- IC50 [3]: > 100 µM
- Selectivity Index (SI) HepG2 [3]: 2.00
- IC50 [4]: > 100 µM

Structure (SMILES): COc1cccc2c1C(=O)c1c(O)c3c(c(O)c1C2=O)C[C@@](O)(C(=O)CO)C[C@@H]3O[C@H]1C[C@H](N)[C@H](O)[C@H](C)O1 [Dox, doxorubicin, reference compound]
- IC50 [1]: 0.61 ± 0.12 µM
- Selectivity Index (SI) A549 [1]: 5.83
- IC50 [2]: 1.34 ± 0.07 µM
- Selectivity Index (SI) MCF-7 [2]: 2.6
- IC50 [3]: 1.27 ± 0.24 µM
- Selectivity Index (SI) HepG2 [3]: 2.8
- IC50 [4]: 3.56 ± 0.02 µM
